The results in this text go back to patent publication US6933290B2, “2-{N-(2-amino-3-(heteroaryl or aryl)propionyl)-aminoacyl}-amino}-alkylboronic acid derivatives” (Novartis AG, priority 2001, dated 2005).

Where “and” joins values, the source holds several entries; their conditions need not be identical. Equal values may be shown once.

The target in the assay is T1, chymotrypsin-like activity of the 20S proteasome (Homo sapiens, UniProt P20618+P28074).
T1 construct: purified human placenta 20S proteasome; tissue Diabetes Forschungsinstitut, Düsseldorf, Germany; host or cells: human placenta
As to the kind of experiment: Inhibition of the chymotrypsin-like activity of the 20S proteasome (Suc-LLVY-AMC hydrolysis). The format is biochemical. The following applies: purified human placenta 20S proteasome, Suc-LLVY-AMC substrate, read-out: IC50 [μM] (results of one or two experiments). From the text:
It is based on the hydrolysis of the fluorogenic peptide Suc-LLVY-AMC (Succinyl-leucine-leucine-vatine-tyrosine-7-amino-4-methyl-coumarin), which is cleaved exclusively at the Y-AMC bond by the 20S proteasome. Hydrolysis of this peptide is accompanied by an increase in fluorescence intensity (λex (excitation wavelength): 355 nm; μem (emission wavelength): 460 nm) due to release of the […] that accompanies diffusion apart of the hydrolysis product Suc-LLVY.
2 μl of a 1 mM solution of a test compound in DMSO (dimethylsulfoxide, 20 μM final concentration in the well) are preincubated for 60 min at room temperature in black 96-well microtiter plates together with a mixture of 1 μl purified human placenta 20S proteasome (Diabetes Forschungsinstitut, DÜsseldorf, Germany; about 100 ng proteasome, depending on the proteasome preparation) and 47 μl buffer-Ca (5 mM CaCl2, 20 mM Tris/HCl (Tris-(hydroxymethyl)-amino-methane hydrochloride) pH 8.0). 3 μl of a 2.67 mM solution of Suc-LLVY-AMC (Bachem, Switzerland) in DMSO (80 μM final concentration in the well) and 47 μl buffer-Ca are mixed and added. The resulting mixture is incubated for 3-24 h at 37° C. If desired, proteolysis of the substrate can be stopped by addition of 50 μl stop solution (100 mM monochloroacetic acid, 130 mM NaOH, 100 mM acetic acid, pH=4.3). The fluorescence is monitored with a FLUOROSKAN ASCENT™ microtiter plate reader.
For each measurement series two control experiments are carried out: • 1.) 0% value: 2 μl DMSO are used in the above described assay instead of 2 μl of a 1 mM solution of a test compound in DMSO and 48 μl buffer-Ca instead of a mixture of 47 μl buffer-Ca and 1 μl purified proteasome. • 2.) 100% value: in the above described assay 2 μl DMSO are used instead of 2 μl of a 1 mM solution of the test compound in DMSO. Calculation [formula]
The IC50 value is defined as that concentration of a compound at which the remaining activity is 50% compared to the […].
`COc1ccc(C[C@H](Nc2cccc(-c3ccccc3)c2)C(=O)N[C@H](C(=O)N[C@@H](CC(C)C)B2O[C@@H]3C[C@@H]4C[C@@H](C4(C)C)[C@]3(C)O2)C(C)C)cc1` [Example 7, (S)-2-[(S)-2-(Biphenyl-3-ylamino)-3-(4-methoxy-phenyl)-propionylamino]-3-methyl-N-[(R)-3-methyl-1-((1S,2S,6R,8S)-2,9,9-trimethyl-3,5-dioxa-4-bora-tricyclo[6.1.1.0^2,6]dec-4-yl)-butyl]-butyramide]: the IC50 is 0.0029 µM and 0.0032 µM.
With `COc1cc(C[C@H](Nc2cccc(-c3ccccc3)c2)C(=O)N[C@@H](C)C(=O)N[C@@H](CC(C)C)B2O[C@@H]3C[C@@H]4C[C@@H](C4(C)C)[C@]3(C)O2)cc(OC)c1OC` [Example 37, (S)-2-(Biphenyl-3-ylamino)-N-{(S)-1-[(R)-3-methyl-1-((1S,2S,6R,8S)-2,9,9-trimethyl-3,5-dioxa-4-bora-tricyclo[6.1.1.0^2,6]dec-4-yl)-butylcarbamoyl]-ethyl}-3-(3,4,5-trimethoxy-phenyl)-propionamide], the concentration for half-maximal inhibition (IC50) is 0.0013 µM.
As for `COc1ccc(C[C@H](Nc2cccc(-c3ccccc3)c2)C(=O)N[C@@H](C)C(=O)N[C@@H](CC(C)C)B2O[C@@H]3C[C@@H]4C[C@@H](C4(C)C)[C@]3(C)O2)c(OC)c1OC` [Example 39, (S)-2-(Biphenyl-3-ylamino)-N-{(S)-1-[(R)-3-methyl-1-((1S,2S,6R,8S)-2,9,9-trimethyl-3,5-dioxa-4-bora-tricyclo[6.1.1.0^2,6]dec-4-yl)-butylcarbamoyl]-ethyl}-3-(2,3,4-trimethoxy-phenyl)-propionamide], the figure is 0.0019 µM.
Turning to `COc1ccc(C[C@H](Nc2cccc(-c3ccccc3)c2)C(=O)N[C@@H](CC(C)C)C(=O)N[C@@H](CC(C)C)B2O[C@@H]3C[C@@H]4C[C@@H](C4(C)C)[C@]3(C)O2)cc1OC` [Example 33, (S)-2-[(S)-2-(Biphenyl-3-ylamino)-3-(3,4-dimethoxy-phenyl)-propionylamino]-4-methyl-pentanoic acid [(R)-3-methyl-1-((1S,2S,6R,8S)-2,9,9-trimethyl-3,5-dioxa-4-bora-tricyclo[6.1.1.0^2,6]dec-4-yl)-butyl]-amide], the IC50 was 0.0026 µM.
As to `COc1ccc(C[C@H](Nc2cccc(-c3ccccc3)c2)C(=O)N[C@@H](C)C(=O)N[C@@H](CC(C)C)B(O)O)c(OC)c1OC` [Example 40, (R)-1-{(S)-2-[(S)-2-(Biphenyl-3-ylamino)-3-(2,3,4-trimethoxy-phenyl)-propionylamino]-propionylamino}-3-methyl-butylboronic acid], the IC50 stood at 0.0022 µM.
For the compound `COc1ccc(C[C@H](Nc2cccc(-c3ccccc3)c2)C(=O)N[C@@H](CC(C)C)C(=O)N[C@@H](CC(C)C)B2O[C@@H]3C[C@@H]4C[C@@H](C4(C)C)[C@]3(C)O2)cc1` [Example 35, (S)-2-[(S)-2-(Biphenyl-3-ylamino)-3-(4-methoxy-phenyl)-propionylamino]-4-methyl-pentanoic acid [(R)-3-methyl-1-((1S,2S,6R,8S)-2,9,9-trimethyl-3,5-dioxa-4-bora-tricyclo[6.1.1.0^2,6]dec-4-yl)-butyl]-amide], the IC50 is 0.0023 µM.
The value for `COc1ccc(C[C@H](Nc2cccc(-c3ccccc3)c2)C(=O)N[C@H](C(=O)N[C@@H](CC(C)C)B(O)O)C(C)C)c(OC)c1OC` [Example 16, (R)-1-{(S)-2-[(S)-2-(Biphenyl-3-ylamino)-3-(2,3,4-trimethoxy-phenyl)-propionylamino]-3-methyl-butyrylamino}-3-methyl-butylboronic acid] was 0.0059 µM; that for `COc1ccc(C[C@H](NC(=O)Cc2cccc(Oc3ccccc3)c2)C(=O)N[C@H](C(=O)N[C@@H](CC(C)C)B(O)O)C(C)C)cc1OC` [Example 26, (R)-1-((S)-2-{(S)-3-(3,4-Dimethoxy-phenyl)-2-[2-(3-phenoxy-phenyl)-acetylamino]-propionylamino}-3-methyl-butyrylamino)-3-methyl-butylboronic acid] was 0.001 µM; that for `COc1cc(C[C@H](Nc2cccc(-c3ccccc3)c2)C(=O)N[C@H](C(=O)N[C@@H](CC(C)C)B2O[C@@H]3C[C@@H]4C[C@@H](C4(C)C)[C@]3(C)O2)C(C)C)cc(OC)c1OC` [Example 1, (S)-2-[(S)-2-(Biphenyl-3-ylamino)-3-(3,4,5-trimethoxy-phenyl)-propionylamino]-3-methyl-N-[(R)-3-methyl-1-((1S,2S,6R,8S)-2,9,9-trimethyl-3,5-dioxa-4-bora-tricyclo[6.1.1.0^2,6]dec-4-yl)-butyl]-butyramide] was 0.0046 µM and 0.0024 µM.
Consider `COc1cc(C[C@H](Nc2cccc(-c3ccccc3)c2)C(=O)N[C@H](C(=O)NC(CC(C)C)B2OC(C)(C)C(C)(C)O2)C(C)C)cc(OC)c1OC` (stereo partly drawn) [Example 23, (S)-2-[(S)-2-(Biphenyl-3-ylamino)-3-(3,4,5-trimethoxy-phenyl)-propionylamino]-3-methyl-N-[3-methyl-1-(4,4,5,5-tetramethyl-[1,3,2]dioxaborolan-2-yl)-butyl]-butyramide], for which the IC50 was found to be 0.0021 µM.
The value for `COc1cc(C[C@@H](Nc2cccc(-c3ccccc3)c2)C(=O)N[C@H](C(=O)N[C@@H](CC(C)C)B(O)O)C(C)C)cc(OC)c1OC` [Example 22, (R)-1-{(S)-2-[(R)-2-(Biphenyl-3-ylamino)-3-(3,4,5-trimethoxy-phenyl)-propionylamino]-3-methyl-butyrylamino}-3-methyl-butylboronic acid] was 0.0017 µM.
The value for `COc1ccc(C[C@H](NC(=O)CCc2ccccc2)C(=O)N[C@@H](C)C(=O)N[C@@H](CC(C)C)B2O[C@@H]3C[C@@H]4C[C@@H](C4(C)C)[C@]3(C)O2)c(OC)c1OC` [Example 47, (S)-N-{(S)-1-[(R)-3-Methyl-1-((1S,2S,6R,8S)-2,9,9-trimethyl-3,5-dioxa-4-bora-tricyclo[6.1.1.0^2,6]dec-4-yl)-butylcarbamoyl]-ethyl}-2-(3-phenyl-propionylamino)-3-(2.3.4 trimethoxy-phenyl)-propionamide] was 0.0008 µM; that for `COc1ccc(C[C@H](Nc2cccc(-c3ccccc3)c2)C(=O)N[C@@H](C)C(=O)N[C@@H](CC(C)C)B(O)O)cc1` [Example 42, (R)-1-{(S)-2-[(S)-2-(Biphenyl-3-ylamino)-3-(4-methoxy-phenyl)-propionylamino]-propionylamino}-3-methyl-butylboronic acid] was 0.0019 µM; that for `COc1ccc(C[C@H](NC(=O)CCc2ccccc2)C(=O)N[C@@H](C)C(=O)N[C@@H](CC(C)C)B(O)O)c(OC)c1OC` [Example 48, (R)-3-Methyl-1-{(S)-2-[(S)-2-(3-phenyl-propionylamino)-3-(2,3,4-trimethoxyphenyl)-propionylamino]-propionylamino}-butylboronic acid] was 0.0007 µM.
The value for `COc1cc(C[C@H](NC(=O)Cc2cccc(Oc3ccccc3)c2)C(=O)N[C@H](C(=O)N[C@@H](CC(C)C)B2O[C@@H]3C[C@@H]4C[C@@H](C4(C)C)[C@]3(C)O2)C(C)C)cc(OC)c1OC` [Example 27, (S)-3-Methyl-N-[(R)-3-methyl-1-((1S,2S,6R,8S)-2,9,9-trimethyl-3,5-dioxa-4-bora-tricyclo[6.1.1.0^2,6]dec-4-yl)-butyl]-2-[(S)-2-[2-(3-phenoxy-phenyl)-acetylamino]-3-(3,4,5-trimethoxy-phenyl)-propionylamino]-butyramide] was 0.0003 µM; that for `COc1ccc(C[C@H](NC(=O)CCc2ccccc2)C(=O)N[C@H](C(=O)N[C@@H](CC(C)C)B2O[C@@H]3C[C@@H]4C[C@@H](C4(C)C)[C@]3(C)O2)C(C)C)c(OC)c1OC` [Example 5, (S)-3-Methyl-N-[(R)-3-methyl-1-((1S,2S,6R,8S)-2,9,9-trimethyl-3,5-dioxa-4-bora-tricyclo[6.1.1.0^2,6]dec-4-yl)-butyl]-2-[(S)-2-(3-phenyl-propionyl-amino)-3-(2,3,4-trimethoxyphenyl)-propionylamino]-butyramide] was 0.0013 µM and 0.0006 µM.
Turning to “(R)-1-{(S)-2-[(S)-2-(Biphenyl-3-ylamino)-3-(3,4,5-trimethoxy-phenyl)-propionylamino]-4-methyl-pentanoylamino}-3-methyl-butylboronic acid [Example 34]”, the IC50 came to 0.0013 µM.
The value for `CC(C)C[C@H](NC(=O)[C@@H](NC(=O)[C@H](Cc1ccc(OCc2ccccc2)cc1)NC(=O)Cc1cccc(OCc2ccccc2)c1)C(C)C)B1O[C@@H]2C[C@@H]3C[C@@H](C3(C)C)[C@]2(C)O1` [Example 29, (S)-2-{(S)-3-(4-Benzyloxy-phenyl)-2-[2-(3-benzyloxy-phenyl)-acetylamino]-propionylamino}-3-methyl-N-[(R)-3-methyl-1-((1S,2S,6R,8S)-2,9,9-trimethyl-3,5-dioxa-4-bora-tricyclo[6.1.1.0^2,6]dec-4-yl)-butyl]-butyramide] was 0.004 µM.
